Test results reported in US20260297042A1, “BIARYLAMIDE DERIVATIVES AND THEIR USE AS PKMYT1 INHIBITORS” (CANCER RESEARCH TECHNOLOGY LIMITED, priority 2023, published 2026).
pIC50: −log10 of the molar value.

Experiments:
[1] = target: T1, Human PKMYT1 (Homo sapiens, UniProt Q99640); assay: PKMYT1 biochemical ADP-Glo enzymatic assay; conditions: ADP-Glo; 15 nM PKMYT1 kinase domain, 500 µM ATP, 60 minutes at 26° C.; banded
T1 construct: Human PKMYT1 75-362 was cloned as a TEV cleavable 6xHis fusion; 6xHis (TEV cleavable) (cleaved yes); made in house; host or cells: bacterial cells
T1 sequence (Q99640 75-362): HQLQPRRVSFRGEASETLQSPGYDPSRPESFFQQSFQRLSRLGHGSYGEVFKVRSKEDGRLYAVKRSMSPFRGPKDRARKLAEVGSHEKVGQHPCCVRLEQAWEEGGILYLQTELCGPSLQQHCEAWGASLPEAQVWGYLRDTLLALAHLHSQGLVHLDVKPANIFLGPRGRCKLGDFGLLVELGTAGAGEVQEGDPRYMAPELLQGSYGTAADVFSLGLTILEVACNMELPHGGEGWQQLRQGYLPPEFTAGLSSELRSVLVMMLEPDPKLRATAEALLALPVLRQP
Outline: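 Intrinsic ATPase activity of E. coli-expressed, tag-cleaved human PKMYT1 kinase domain (75-362), 15 nM, with 500 µM ATP in HEPES pH 7.5/MgCl2/EGTA/Brij-35, 1% DMSO, 60 min at 26 °C. ADP formed was read by ADP-Glo Max luminescence; IC50 from 10-point, 3-fold dilution curves.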

[2] = target: T2, WEE1 (Homo sapiens, UniProt P30291); assay: Selectivity versus WEE1 assay (ADP-Glo enzymatic assay); type: biochemical; conditions: banded
T2 construct: purchased Thermo Fisher PR7373A
T2 sequence (P30291 whole entry): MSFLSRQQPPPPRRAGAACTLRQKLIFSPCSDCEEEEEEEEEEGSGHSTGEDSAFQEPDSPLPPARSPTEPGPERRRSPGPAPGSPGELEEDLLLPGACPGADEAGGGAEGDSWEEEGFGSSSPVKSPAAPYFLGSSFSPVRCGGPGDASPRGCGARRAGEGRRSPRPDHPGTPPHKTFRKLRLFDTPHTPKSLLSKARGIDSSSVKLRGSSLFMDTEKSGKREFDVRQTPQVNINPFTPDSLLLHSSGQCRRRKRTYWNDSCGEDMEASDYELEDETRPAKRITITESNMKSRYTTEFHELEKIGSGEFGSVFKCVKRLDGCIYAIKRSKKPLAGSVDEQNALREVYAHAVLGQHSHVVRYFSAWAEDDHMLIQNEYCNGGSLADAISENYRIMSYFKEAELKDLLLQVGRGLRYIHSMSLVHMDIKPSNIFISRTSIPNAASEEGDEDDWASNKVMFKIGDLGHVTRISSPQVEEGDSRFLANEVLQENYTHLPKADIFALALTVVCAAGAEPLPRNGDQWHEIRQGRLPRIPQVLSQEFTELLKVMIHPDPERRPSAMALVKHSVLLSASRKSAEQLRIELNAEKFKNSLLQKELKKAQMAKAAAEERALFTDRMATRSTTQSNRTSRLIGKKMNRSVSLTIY
Outline: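 Kinase at 15 nM final in 50 mM HEPES pH 7.5, 10 mM MgCl2, 1 mM EGTA, 0.01% Brij-35, 1% DMSO was started with 30 µM ATP and run 60 min at 26° C. ADP formed was read by ADP-Glo luminescence; IC50 came from dose-response curves.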

[3] = tested on: KYSE-30 cells; assay: Cancer cell line proliferation assay, ATP-based cell viability (Cell Titre Glow), KYSE-30 (normal CCNE1); conditions: Homo sapiens, KYSE-30 cells (normal CCNE1), concentration that achieves 50% cell growth proliferation inhibition, read-out: KYSE30 Gl50
Outline: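 Sensitivity to PKMYT1 inhibitors was measured by ATP-based luminescence (CellTiter-Glo) as the proliferation endpoint. GI50, the concentration giving 50% growth inhibition, was estimated from curve fits.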

## CCN(CC)C(=O)Cn1cc(C)c(Nc2ncc(C(=O)Nc3c(C)ccc(O)c3C)s2)n1 [BAA-207, 2-[[1-[2-(diethylamino)-2-oxo-ethyl]-4-methyl-pyrazol-3-yl]amino]-N-(3-hydroxy-2,6-dimethyl-phenyl)thiazole-5-carboxamide]
[1]
  pIC50: > 7.30
[2]; ADP-Glo, 15 nM WEE1, 60 minutes at 26° C.
  pIC50: 4.96 to 6.00
[2]; fold difference in selectivity for PKMYT1 over WEE1, ">N" = at least in this band but could be higher
  PKMYT1 vs. WEE1 selectivity: X (100-<1000 fold)
[3]
  GI50: > 5000 nM
